{
  "source": "patent US3959248A",
  "about": "“Analogs of thyrotropin-releasing hormone” (Merck & Co., Inc., priority 1975, dated 1976)",
  "key": {"thyrotropin release": {"system": "thyrotropin release", "test": "thyrotropin releasing hormone activity (TS, thyrotropin stimulation), in vivo assay", "conditions": "multiple of the control TS activity of TRH, which has the value 1", "experimental": "(§1) The tripeptides of the present invention are found to have anti-depressant activity and thyrotropin releasing hormone activity. Their activity as anti-depressants is as central nervous system (CNS) stimulants and was determined by testing representative tripeptides of the present invention using in vivo assay based on restoration of anti-convulsant action of methazolamide in picolinic acid treated mice. The thyrotropin releasing hormone activity of the present tripeptides was determined using the in vivo assay substantially as described in \"Vitamins and Hormone\" R.S. Harris et al, 29, 3-4 (1971).\n(§2) The following table contains activity data for a number of representative peptides of the present invention. The protocols used to obtain the data were those described above. The results are expressed numerically as multiples of the TS (thyrotropin stimulation) and AD (anti-depressant) activity compared to the control TS and AD activities of TRH which have the value 1. The designation S.N. is used to indicate substantially no detectable activity at the dosage level tested."}, "[1]": {"system": "picolinic acid treated mice", "test": "anti-depressant (CNS stimulant) activity: restoration of anti-convulsant action of methazolamide in picolinic acid treated mice", "conditions": "multiple of the control AD activity of TRH, which has the value 1, in vivo", "experimental": "as §1, §2"}},
  "data": [
    {"smiles": "NC(=O)[C@@H]1CCCN1C(=O)[C@H](Cc1c[nH]cn1)NC(=O)[C@@H]1CCC(=O)N1", "note": "[TRH, L-pyroglutamyl-L-histidyl-L-proline amide]", "values": [
      {"measurement": "TS (thyrotropin stimulation) activity", "setting": "thyrotropin release", "value": 1},
      {"measurement": "AD (anti-depressant) activity", "setting": "[1]", "value": 1}
    ]}
  ]
}
